Data reported in patent US20250066420A1, “PD-L1 INHIBITORY PEPTIDE FOR CANCER IMMUNOTHERAPY” (Kansas State University Research Foundation, priority 2021, published 2025).
“Also recorded” adds a separate entry of the source.

Legend:
[1] = system: CT26 murine colon carcinoma cells; test: MTT viability of CT26 cells without T cells; format: cell-based, mouse
Method: Evaluation of the Effect of PD-L1ip3 Peptide or Gene Transduction by Ad-PD-L1ip3 on Murine Colon Carcinoma Cells in Cell Culture The CT26 murine colon carcinoma cells (1,000 cells/well) were seeded into 96-well plate.
After 24 h, these cells were treated directly with PD-L1ip3 in peptide form (0.1-10 μg/ml) or indirectly with the PD-L1ip3 gene by Ad-PD-L1ip3 transduction (10, 20 and 50 MOI). The growth of the cells was evaluated by MTT assay 24-72 h after the treatments as described previously.
To evaluate therapeutic potential and cytotoxicity of the PD-L1ip3 peptide and transduction by Ad-PD-L1ip3, cell viability of CT26 cells was analyzed using MTT assay in the presence of mIFNγ (25 ng/ml), which was used to increase PD-L1 expression in cancer cells. The scrambled sequence version of PD-L1ip3 (PD-L1ip3SC) and the adenovirus carrying the corresponding scrambled sequence gene (Ad-PD-L1ip3SC) were used as negative controls.

[2] = system: murine LLC lung carcinoma cells; test: Cytotoxicity of antigen-primed CD8+ T cells toward LLC cells in co-culture; format: cell-based, mouse; conditions: 10 μM, 1:16 ratio, 18 and 36 hrs; positive control anti-PD-L1 antibody
Method: Generation of LLC cell antigen primed CD8^+ T cells in vivo: Mice were subcutaneously injected with LLC lysate (0.5×10^6 cells/mouse in 100 μl) at Day 0. X-ray (100 Gy) irradiated LLC cells were cocultured with JAWSII immature dendritic cells (JAWS-irrLLC) at a 1:1 ratio for 48 hrs in the presence of LPS (1 μg/ml). The cells were then intravenously injected into mice via tail vein (0.5×10^4 cells/mouse in 200 μl) at Day 7. At Day 21, the splenocytes were harvested and CD8^+ T cells (AP-CD8^+ T cells) were isolated using commercially available isolation kit.
Evaluation of T cell-induced death of lung carcinoma cells in co-culture: Permanently GFP-expressing LLC cells (1×10^4 cells) were treated with murine IFNγ (25 ng/ml) for 48 hrs. The cells were treated with 10 μM PD-L1ip3. PD-L1ip3SC (10 μM) and mouse anti-PD-L1 antibody (αPD-L1: 0.5 or 1.0 μg/ml) were used as control. The cells were then cocultured with antigen primed CD8^+ T cells 1:16 ratio. The cytotoxicity of AP-CD8^+ T cells toward LLC cells at 18 and 36 hrs after coculture was determined by flow cytometry.

[3] = system: H1299 human non-small cell lung carcinoma cell line; test: Co-culture of activated Jurkat cells with H1299 lung cancer cells, cell death by flow cytometry; format: cell-based; conditions: for cell death in H1299 cells: Jurkat co-culture, 48 hours; for increase in cell death in H1299 cells: co-cultured with nonspecifically activated Jurkat cells, preliminary data
Method: (§1) • H1299 human non-small cell lung carcinoma cell line (ATCC) • Jurkat cells (Human T lymphoblasts, ATCC) • Primary cultured murine CD8^+ T cell primed with H1299 cell lysate (H1299 cell antigens)
Co-culture assay procedure. Dead cell populations were measured by flow cytometry at 48 hours post-co-culture using propidium iodide (PI) staining.

[4] = system: H1299 human non-small cell lung carcinoma cell line; test: Co-culture of H1299 cell antigen-specific T cells with H1299 lung cancer cells, cell death by flow cytometry; format: cell-based; conditions: for cell death in H1299 cells: antigen-specific T cell co-culture, 48 hours
Source text: as §1
Mice were immunized with H1299 cells via tail vein injection. T cells were extracted from spleen, purified, and expanded by co-culturing with dendritic cells (DCs) stimulated with H1299 cell lysate. Expanded T cells were used in co-culture assay.

[5] = system: CT26 murine colon carcinoma cells; test: T cell-induced death of CT26 cells in co-culture with antigen-primed CD8+ T cells (flow cytometry); format: cell-based, mouse; conditions: peptide 10 μM, CT26:T cell 1:16
Method: a. Generation of CT26 cell antigen-specific CD8^+ T cells in vivo: First, the mice were subcutaneously (SQ) injected with CT26 cell lysate (0.5×10^6 cells/mouse in 200 μl PBS) at Day 0. JAWSII immature dendritic cells and CT26 cells previously irradiated with an X-ray dose of 100 Gy were cocultured at a 1:1 ratio for 48 h with an additional treatment of LPS (1 μg/ml). The cells (0.5×10^6 cells/mouse in 200 μl PBS) were collected and administered IV via tail vein to the mice at Day 7. At Day 21, the splenocytes were harvested and the CT26 antigen-specific CD8^+ T cells were labeled using MojoSort™ Mouse CD8 T Cell Isolation Kit (Biolegend, San Diego, CA) and isolated using magnetic beads-based separation protocol with MACS® Column (Miltenyi Biotec, Bergisch Gladbach, Germany) according to the manufacturer's instructions.
b. Evaluation of T cell-induced death of colon carcinoma cells in co-culture: Permanently GFP-expressing CT26 cells (GFP-CT26) produced by GFP-lentivirus vector transduction were seeded into 12 well-plate (1×10^4 cells/well) in the presence of murine interferon gamma (mIFNγ) at 25 ng/ml for 24 h. […] The effect of PD-L1ip3 in peptide form or gene transduction by Ad-PD-L1ip3 on CT26 cell death was analyzed by flow cytometry using LIVE/DEAD™ Fixable Violet Dead Cell Stain Kit (Invitrogen Corp). […]

human PD-L1 = target: T1, human PD-L1 (Homo sapiens, UniProt Q9NZQ7); test: Bio-layer interferometry binding to biotinylated PD-L1; conditions: read-out: dissociation constant KD
T1 construct: biotin (biotinylated); purchased R&D Systems (Minneapolis, Minnesota)
Method: (§2) For each experiment, the BLItz machine was fitted with a fresh streptavidin biosensor tip (FortéBio). All tips were solvated in PBS buffer for 15-30 min before the experiments. The peptide was solvated at a concentration of approximately 1 mg/ml. The precise concentration of this stock solution (0.922 mg/ml) was obtained using the Pierce BCA Protein Assay Kit (Thermo Fisher Scientific) and multiple dilutions were made (corresponding to […]). A solution of biotinylated PD-L1 was applied to the biosensor tip during the loading phase of each experiment. PBS buffer (ix) was used for the baseline.

CT26 cell tumors = test: CT26 subcutaneous allograft tumor growth in Balb/c mice; format: in vivo, mouse
Method: The anti-tumor effect of Ad-PD-L1ip3 and PD-L1ip3 in peptide form was evaluated in Balb/c mice using a CT26 murine colon carcinoma allograft model. The CT26 cells were transduced with 100 MOI of Ad-PD-L1ip3 or Ad-PD-L1ip3SC. At 24 h after transduction, the cells were suspended into 0.6% agarose dissolved in RPMI 1640. After filling agarose-cell mixture into 1 ml syringe equipped with 27G needle, it was solidified on ice. Mice were anesthetized with isoflurane and injected subcutaneously into the back with a 5×10^5 CT26 cells in 50 μl cell-agarose mixture. The intraperitoneal administration of PD-L1ip3 peptide (10 mg/kg) was carried out at 1 week after CT26 inoculation for 13 days (every day, totaling 13 injections). The PBS control was injected intraperitoneally with the same schedule. For the pre-immunization study, CT26 lysate (1×10^6 cells/100 μl PBS) were injected subcutaneously, 3 times with 1-week interval. The CT26 lysate was made by 3 times freeze-thaw cycles using liquid nitrogen. The mouse body weights were monitored at 2-day intervals. All mice were sacrificed […] after CT26 inoculation by cervical dislocation after exposure to saturated C02. The tumor size was measured by caliper every 2 days and the volume was calculated using the formula 0.5×(short diameter)^2×(long diameter). The tumors were weighed and fixed in 10% formalin for histological analysis.

[6] = target: T2, Biotinylated human PD-L1 (R&D Systems) (human, UniProt Q9NZQ7 19-239, limits assumed, biotinylated (site not stated)); test: bio-layer interferometry (BLItz), biotinylated PD-L1 on streptavidin tip, peptide in solution; negative control; scrambled peptide, negative control
T2 construct: Bought reagent, loaded on a streptavidin biosensor tip for bio-layer interferometry
Method: as §2
The peptide was synthesized commercially and the dissociation constant was determined by bio-layer interferometry.

[7] = peptide form 0.1-10 μg/ml, mIFNγ 25 ng/ml, 24-72 h, no T cells

T2 sequence (Q9NZQ7 19-239 limits assumed): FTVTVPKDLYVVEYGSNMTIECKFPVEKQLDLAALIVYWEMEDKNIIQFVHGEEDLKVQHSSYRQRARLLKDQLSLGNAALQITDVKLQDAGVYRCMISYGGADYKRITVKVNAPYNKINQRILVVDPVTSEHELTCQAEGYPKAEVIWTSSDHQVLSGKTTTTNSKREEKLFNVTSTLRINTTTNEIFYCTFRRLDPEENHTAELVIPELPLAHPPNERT

Molecule	viability of CT26 cells (MTT) [1, 7]	cytotoxicity of antigen-specific CD8+ T cells toward LLC cells [2]	cell death in H1299 cells [3]	increase in cell death in H1299 cells [3]	cell death in H1299 cells [4]	increase in cell death in H1299 cells ([4]; co-cultured with H1299 cell antigen-primed T lymphocytes)	T cell-induced cell death of CT26 cells vs PBS [5]	Kd (human PD-L1)	average tumor volume (CT26 cell tumors; mice pre-treated with CT26 cell lysate 3 times, Ad 100 MOI, peptide 10 mg/kg/day i.p., untreated 729.6±310.3)	change in tumor growth vs untreated CT26 cells (CT26 cell tumors; no lysate pretreatment)	viability of CT26 cells (MTT) ([1]; 10 μg/ml, 72 h, not significantly different from PBS)	Kd [6]
H-GTRLKPLIICVQWPGL-OH [PD-L1ip3]	not affected	Increased; also recorded: as good as or better than the positive control	only minor increases of cell death	30%	clear increases of cell death	50%	markedly increased	33 ± 3 µM	607.5±220.1 mm^3	nor PD-L1ip3 in peptide form alone showed a statistically significant change in tumor growth	–	–
H-VLIKIPWLRLPGCGTQ-OH [PD-L1ip3SC, reference compound]	not affected	–	only minor increases of cell death	30%	–	–	–	–	–	–	slight decrease of cell viability	–
PLDIRDRVHVEKSAAS [PD-L1ip4]	–	–	did not alter T cell-dependent death	–	did not alter T cell-dependent death	–	–	–	–	–	–	–
VLIKIPWLRLPGCGTQ (Negative control in BLI; also called scrambled peptide) [PD-L1ip3SC (scrambled analogue of PD-L1ip3)]	–	–	–	–	–	–	–	–	–	–	–	~50 mM
